Measured values reported in patent US20080200473A1, “Imidazo [1,2-a]Pyridine Compounds, Compositions, Uses and Methods Thereto” (Ferrer Internacional, S.A., priority 2004, published 2008).

Assays:
mice = experiment: In vivo predictive sedation-hypnosis test (inhibition of traveled distance); parameters: species or system mouse; conditions: male CD1 mice; single equimolecular intraperitoneal doses; traveled distance over 30 min after dosing (first 5 min discarded) versus control
Protocol: In vivo determination of predictive sedative-hypnotic action.
The in vivo effects of these compounds were assessed by a predictive sedation-hypnosis test in mice (D. J. Sanger et al., Eur. J. Pharmacol., 313, 35-42, 1996; and G. Griebel et al., Psychopharmacology, 146, 205-213, 1999).
Groups of 5-8 male CD1 mice, weighing 22-26 g at the time of test, were used. The test compounds were administered in single equimolecular intraperitoneal doses, suspended in 0.25% agar with one drop of Tween in a volume of 10 mL/kg. Control animals received the vehicle alone. Using a Smart System (Panlab, S. L., Spain) the traveled distance in cm is recorded for each mouse at 5-min intervals during a period of 30 minutes after dosing. The inhibition percentage of traveled distance of treated animals versus control animals (the first 5 min were discarded) was calculated.

α2-GABAA receptor = experiment: Ligand-binding assay, competitive with radiolabeled flumazenil, spinal cord membranes; conditions: Affinity for α2-GABAA receptor, rat spinal cord membranes, radiolabeled flumazenil 1 nM; for % Inhibition 10^−5M: 10^-5M test compound; for % Inhibition 10^−7M: 10^-7M test compound
Protocol: (§1) Ligand-binding assays. Determination of the affinity of test compounds for α1- and α2-GABAA receptor.
(§2) Male Sprague-Dawley rats weighing 200-250 g at the time of experiment were used. After decapitation of the animal, the cerebellum (tissue that mostly contains α1-GABAA receptor) and spinal cord (tissue that mostly contains α2-GABAA receptor) were removed. The membranes were prepared according to the method by J. Lameh et al. (Prog. Neuro-Psychopharmacol. Biol. Psychiatry, 24, 979-991, 2000) and H. Noguchi et al. (Eur. J. Pharm., 434, 21-28, 2002). Once the tissues weighed, they were suspended in 50 mM Tris.HCl (pH 7.4), 1:40 (w/v), or sucrose 0.32 M in the case of spinal cord, homogenized and then centrifuged at 20,000 g for 10 min at 7° C. twice. The resulting pellet was resuspended under the same conditions and centrifuged again. The pellet was finally resuspended on a minimum volume and kept at −80° C. overnight. On the next day, the process was repeated until the final pellet was resuspended at a ratio of 1:10 (w/v) in the case of cerebellum and at a ratio of 1:5 (w/v) in the case of spinal cord.
(§3) Affinity was determined by competitive tests using radiolabeled flumazenil as ligand. The tests were performed according to the methods described by S. Arbilla et al. (Eur. J. Pharmacol., 130, 257-263, 1986); and Y. Wu et al. (Eur. J. Pharmacol., 278, 125-132, 1995) using 96-well microtiter plates. The membranes containing the study receptors, flumazenil (radiolabeling at a final concentration of 1 nM) and ascending concentrations of test compounds (in a total volume of 230 μL in 50 mM [ph 7.4] Tris.HCl buffer) were incubated. Simultaneously, the membranes were only incubated with the radiolabeled flumazenil (total binding, 100%) and in the presence of an elevated concentration of unradiolabeled flumazenil (non-specific binding, % estimation of radiolabeled ligand). The reactions started on adding the radiolabeled ligand followed by incubation for 60 minutes at 4° C. At the end of the incubation period, 200 μL of reaction were transferred to a multiscreen plate (Millipore) and filtered using a vacuum manifold and then washed three times with cold test buffer. The multiscreen plates were equipped with a GF/B filter that retained the membranes containing the receptors and the radiolabeled ligand which has been bound to the receptors. After washing, the plates were left till dry. Once dried, scintillation liquid was added and left under stirring overnight. The next day the plates were counted using a Perkin-Elmer Microbeta scintillation counter.
(§4) For analysis of the results the percentage of specific binding for every concentration of test compound was calculated as follows:
(§5) % specific binding=(X−N/T−N)×100
(§6) where, X: amount of bound ligand for every concentration of compound. T: total binding, maximum amount bound to the radiolabeled ligand. N: non-specific binding, amount of radiolabeled ligand bound in a non-specific way irrespective of the receptor used.
(§7) Every concentrations of compound were tested in triplicate and their mean values were used to determine the experimental values of % specific binding versus the concentration of compound. Affinity data are expressed as % inhibition at 10^-5M and 10^-7M concentrations.

α1-GABAA receptor = experiment: Ligand-binding assay, competitive with radiolabeled flumazenil, cerebellum membranes; conditions: Affinity for α1-GABAA receptor, rat cerebellum membranes, radiolabeled flumazenil 1 nM; for % Inhibition 10^−5M: 10^-5M test compound; for % Inhibition 10^−7M: 10^-7M test compound
Protocol: as §1, §2, §3, §4, §5, §6, §7

Compound	% Inhibition Motor Activity (mice)	% Inhibition 10^−5M (α2-GABAA receptor)	% Inhibition 10^−7M (α2-GABAA receptor)	% Inhibition 10^−5M (α1-GABAA receptor)	% Inhibition 10^−7M (α1-GABAA receptor)
Cc1ccc(-c2nc3ccc(C)cn3c2CN(C)C(=O)c2ccnc(Cl)c2)cc1 [Example 34, 2-Chloro-N-methyl-N-(6-methyl-2-p-tolyl-imidazo[1,2-a]pyridin-3-ylmethyl)-isonicotinamide]	92.98%	85.0%	0.0%	98.8%	39.6%
Cc1ccc(-c2nc3ccc(C)cn3c2CNC(=O)c2nc(C)oc2C)cc1 [Example 83, 2,5-Dimethyl-oxazole-4-carboxylic acid (6-methyl-2-p-tolyl-imidazo[1,2-a]pyridin-3-ylmethyl)-amide]	93.22%	93.2%	71.1%	100.0%	93.6%
Cc1ccc(-c2nc3ccc(C)cn3c2CNC(=O)c2csc(C)n2)cc1 [Example 69, 2-Methyl-thiazole-4-carboxylic acid (6-methyl-2-p-tolyl-imidazo[1,2-a]pyridin-3-ylmethyl)-amide]	78.41%	98.8%	74.1%	100.4%	93.4%
Cc1ccc(-c2nc3ccc(C)cn3c2CNC(=O)c2cn(C)cn2)cc1 [Example 74, 1-Methyl-1H-imidazole-4-carboxylic acid (6-methyl-2-p-tolyl-imidazo[1,2-a]pyridin-3-ylmethyl)-amide]	77.37%	98.6%	63.0%	99.9%	95.3%
Cc1ccc(-c2nc3ccc(C)cn3c2CNC(=O)c2ccc([N+](=O)[O-])o2)cc1 [Example 14, 5-Nitro-furan-2-carboxylic acid (6-methyl-2-p-tolyl-imidazo[1,2-a]pyridin-3-ylmethyl)-amide]	89.82%	92.2%	26.2%	99.4%	51.4%
Cc1ccc(-c2nc3ccc(C)cn3c2CNC(=O)Cc2cccs2)cc1 [Example 71, N-(6-Methyl-2-p-tolyl-imidazo[1,2-a]pyridin-3-ylmethyl)-2-thiophen-2-yl-acetamide]	94.08%	67.8%	7.2%	96.4%	21.9%
Cc1ccc(-c2nc3ccc(C)cn3c2CNC(=O)c2ccc(C)n2C)cc1 [Example 6, 1,5-Dimethyl-1H-pyrrole-2-carboxylic acid (6-methyl-2-p-tolyl-imidazo[1,2-a]pyridin-3-ylmethyl)-amide]	78.09%	64.4%	0.0%	96.1%	22.5%
Cc1ccc(-c2nc3ccc(C)cn3c2CN(C)C(=O)c2ccc([N+](=O)[O-])cc2)cc1 [Example 31, N-Methyl-N-(6-methyl-2-p-tolyl-imidazo[1,2-a]pyridin-3-ylmethyl)-4-nitro-benzamide]	69.67%	38.8%	0.0%	82.5%	1.2%
Cc1ccc(-c2nc3ccc(C)cn3c2CNC(=O)c2cnccn2)cc1 [Example 89, Pyrazine-2-carboxylic acid (6-methyl-2-p-tolyl-imidazo[1,2-a]pyridin-3-ylmethyl)-amide]	74.65%	98.2%	54.5%	100.3%	88.2%
Cc1ccc(-c2nc3ccc(C)cn3c2CN(C)C(=O)c2ncc(F)cc2F)cc1 [Example 33, 3,5-Difluoro-pyridine-2-carboxylic acid methyl-(6-methyl-2-p-tolyl-imidazo[1,2-a]pyridin-3-ylmethyl)-amide]	35.02%	74.0%	0.0%	98.4%	37.3%
Cc1ccc(-c2nc3ccc(C)cn3c2CNC(=O)c2ccco2)cc1 [Example 4, Furan-2-carboxylic acid (6-methyl-2-p-tolyl-imidazo[1,2-a]pyridin-3-ylmethyl)-amide]	73.28%	82.9%	0.0%	97.4%	19.4%
COc1ccc(C(=O)NCc2c(-c3ccc(C)cc3)nc3ccc(C)cn23)cc1 [Example 11, 4-Methoxy-N-(6-methyl-2-p-tolyl-imidazo[1,2-a]pyridin-3-ylmethyl)-benzamide]	55.43%	6.5%	0.0%	70.7%	29.0%
Cc1ccc(-c2nc3ccc(C)cn3c2CNC(=O)C2CC2)cc1 [Example 13, Cyclopropanecarboxylic acid (6-methyl-2-p-tolyl-imidazo[1,2-a]pyridin-3-ylmethyl)-amide]	90.36%	67.8%	0.0%	97.6%	53.8%
Cc1ccc(-c2nc3ccc(C)cn3c2CNC(=O)c2occc2C)cc1 [Example 15, 3-Methyl-furan-2-carboxylic acid (6-methyl-2-p-tolyl-imidazo[1,2-a]pyridin-3-ylmethyl)-amide]	80.12%	41.6%	0.0%	74.5%	0.0%
Cc1ccc(-c2nc3ccc(C)cn3c2CNC(=O)c2cnc(C)cn2)cc1 [Example 61, 5-Methyl-pyrazine-2-carboxylic acid (6-methyl-2-p-tolyl-imidazo[1,2-a]pyridin-3-ylmethyl)-amide]	90.55%	98.5%	48.3%	100.0%	85.4%
